From article PMC11649784, “Re-design and evaluation of diclofenac-based carborane-substituted prodrugs and their anti-cancer potential” (Scientific Reports, 2024)

Experiments:
MC38 cells [1] = assay: MTT viability assay, MC38; assay type: cell-based, murine; settings: 72 h, mean±SD, read-out: IC50 [μM] (n = 3) MC38 MTT
Experimental: (§1) In a preliminary test, the stability of all compounds dissolved in the cell medium (c = 100 μM, T = [drawing 47] ) for 72 h was validated by HPLC (see Supporting Information). Cell lines were incubated with the respective compounds in a concentration range of 1.56–100 μM for 72 h, and cell viability was measured using 3-(4,5-dimethylthiazol-2-yl)-2,5-diphenyltetrazolium bromide (MTT) and crystal violet (CV) assays. […] As MTT tests gave inconsistent results, possibly due to interference of the compound with mitochondrial respiration, for the further evaluation only the CV results are considered[97],[98].
(§2) The biological study was performed on a murine colon adenocarcinoma cell line (MC38), two human colorectal carcinoma cell lines (HCT116 and HT29), and a human fetal lung fibroblast cell line (MRC-5). All cell lines are commercially available and were obtained from the American Type Culture Collection (ATCC). The human cell lines were kept in HEPES-buffered RPMI-1640 medium supplemented with 10 [drawing 141] heat-inactivated FCS, 2 mM L-glutamine, 0.01 [drawing 142] sodium pyruvate, penicillin (100 units mL^−1), and, streptomycin ( [drawing 143] mL^-1). The MC38 cell line was maintained in DMEM medium additionally supplemented with 1 [drawing 144] non-essential amino acids. Cells were grown at [drawing 145] in a humidified atmosphere with 5 [drawing 146] [drawing 147] . Peritoneal exudate cells (PECs) were isolated from healthy C57BL/6 mice (males, n = 3, 3 months old, weight 22–25 g) by performing an ice-cold PBS peritoneal lavage. Mice were sacrificed by cervical dislocation. Cells were cultivated for 4 h when nonadherent population was removed by washing in PBS, and additionally cultivated overnight in HEPES-buffered RPMI-1640 medium supplemented with 5 [drawing 148] heat-inactivated FCS before treatment with experimental drugs. Animal handling and protocol for isolation of PECs were performed according to European Union rules, and the ARRIVE guidelines 2.0.
(§3) For the viability tests, MC38, HCT116, and HT29 cells were seeded in 96-well plates at a density of 2 [drawing 149] 103, 5 [drawing 150] 103, and 6 [drawing 151] 10^3 cells/well, respectively. To determine whether the drug affected the viability of healthy, non-malignant cells, MRC-5 and PECs were seeded in 96-well plates at a density of 8 [drawing 152] 103 and 2 [drawing 153] 10^5 cells/well, respectively. For the flow cytometric analyses, MC38 cells were seeded in 6-well plates at 5 [drawing 154] 10^4 cells/well. For morphological assessment of nuclei and the detection of autophagy, MC38 cells were seeded in 2-well chamber slides at 1.5 [drawing 155] 10^4 cells/well.
(§4) After 72 h, cell viability was determined using MTT and CV tests. First, the supernatant from the wells was discarded and the cells were incubated with an MTT solution (0.5 mg mL^−1). After half an hour, the purple formazan crystals formed were dissolved in DMSO. For CV staining of the cells, the cells were fixed with 4 [drawing 157] PFA for 10 min and then stained with a 0.02 [drawing 158] CV solution for 15 min, all at room temperature (RT). The cells were then washed with tap water, air-dried and the dye was dissolved in 33 [drawing 159] acetic acid. For both viability tests, the absorbance of the developed colors was measured using an automated microplate reader at 570 nm with a reference wavelength of 670 nm. The results were expressed as a percentage of the control values of the untreated cells, which were arbitrarily set at 100 [drawing 160] . IC50 values, defined as 50 [drawing 161] inhibitory concentration, were calculated using a four-parameter logistic function and presented as mean±SD. All biological experiments were performed in triplicates. To evaluate the nature of the detected autophagy, a combined treatment with compound 3 and the autophagy inhibitors chloroquine (Chlq) and 3-methyladenine (3-MA) was carried out. […] After 72 h, cell viability was determined by CV assay.

MC38 cells [2] = assay: Crystal violet (CV) viability assay, MC38; assay type: cell-based, murine; settings: 72 h, mean±SD, read-out: IC50 [μM] (n = 3) MC38 CV
Experimental: as §1, §2, §3, §4

HCT116 cells [3] = assay: MTT viability assay, HCT116; assay type: cell-based, human; settings: 72 h, mean±SD, read-out: IC50 [μM] (n = 3) HCT116 MTT
Experimental: as §1, §2, §3, §4

HCT116 cells [4] = assay: Crystal violet (CV) viability assay, HCT116; assay type: cell-based, human; settings: 72 h, mean±SD, read-out: IC50 [μM] (n = 3) HCT116 CV
Experimental: as §1, §2, §3, §4

HT29 cells [5] = assay: MTT viability assay, HT29; assay type: cell-based, human; settings: 72 h, mean±SD, read-out: IC50 [μM] (n = 3) HT29 MTT
Experimental: as §1, §2, §3, §4

HT29 cells [6] = assay: Crystal violet (CV) viability assay, HT29; assay type: cell-based, human; settings: 72 h, mean±SD, read-out: IC50 [μM] (n = 3) HT29 CV
Experimental: as §1, §2, §3, §4

MC38, HCT116, and HT29 = assay: Viability assays, summary over the three cancer cell lines; assay type: cell-based; settings: 72 h; for effect on cell viability: concentrations up to 100 μM
Experimental: as §1, §4

[7] = Hydrolysis stability of the lactam in solution; assay type: physicochemical; settings: several pH-levels, acids, bases, temperatures and solvents
Description: To estimate the functionality as a prodrug and the stability of the oxindoles, we investigated the behavior in solution at several pH-levels, with different acids, bases, temperatures and solvents (see Supporting Information). […] The alkaline hydrolysis was successful with CsOH in a degassed 1:3 water-ethanol mixture at [drawing 29] , while acidic hydrolysis happened at [drawing 30] in 40% aqueous sulfuric acid with 2% acetic acid. Upon attempted isolation however, the lactam was re-formed within minutes as observed by [drawing 31] H and ^11B{ [drawing 32] H} NMR spectroscopy (see Supporting Information). […] The reclosing to the oxindole ring might be attributed to an increased nucleophilicity of the amino nitrogen atom stemming from its association to the carborane cluster via a cluster boron atom. This is supported by density functional theory (DFT) calculations (see Supporting Information).

human recombinant COX-2 = target: T1, human recombinant COX-2 (Homo sapiens, UniProt P35354); assay: COX Fluorescent Inhibitor Screening Assay, COX-2; assay type: biochemical; settings: for COX inhibition, in words: in vitro COX assay, COX-1 and COX-2
T1 construct: purchased Cayman Chemical Company, Ann Arbor, MI, USA
T1 sequence (P35354 18-604): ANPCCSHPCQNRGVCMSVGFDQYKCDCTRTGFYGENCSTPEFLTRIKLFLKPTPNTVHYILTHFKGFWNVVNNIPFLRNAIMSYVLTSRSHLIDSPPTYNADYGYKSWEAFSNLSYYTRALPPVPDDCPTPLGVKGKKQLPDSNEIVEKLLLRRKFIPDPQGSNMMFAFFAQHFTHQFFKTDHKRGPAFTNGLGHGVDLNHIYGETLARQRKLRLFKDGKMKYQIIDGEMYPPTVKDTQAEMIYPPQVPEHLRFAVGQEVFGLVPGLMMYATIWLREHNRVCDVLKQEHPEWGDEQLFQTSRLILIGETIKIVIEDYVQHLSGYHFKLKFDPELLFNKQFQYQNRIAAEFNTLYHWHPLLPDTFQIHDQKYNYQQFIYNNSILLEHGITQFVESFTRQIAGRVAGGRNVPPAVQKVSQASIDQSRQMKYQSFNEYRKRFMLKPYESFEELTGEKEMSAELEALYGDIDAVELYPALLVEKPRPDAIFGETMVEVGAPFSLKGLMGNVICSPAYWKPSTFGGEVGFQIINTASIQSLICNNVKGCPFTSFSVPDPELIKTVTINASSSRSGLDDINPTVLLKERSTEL
Experimental: The COX inhibition activity against ovine COX-1 and human recombinant COX-2 was determined using the COX Fluorescent Inhibitor Screening Assay Kit (Cayman Chemical Company, Ann Arbor, MI, USA) according to the manufacturer’s instructions as reported.

Hep-G2 = settings: cited from earlier work
[8] = system: MCF7, MiaPaCa-2, KB, HuTu80, L132, B16F10 and Molt4 cancer cells; design: method as in doi:10.1007/s00044-012-0309-2; settings: cited from earlier work
[9] = cited from earlier work
[10] = in vivo ref 43, 44; cited from earlier work
[11] = buffer solutions at pH 1.2 and pH 7.4 and human serum ref 36, 43; cited from earlier work

IC50 (HCT116 cells [3]) [µM]	IC50 (HCT116 cells [4]) [µM]	IC50 (HT29 cells [5]) [µM]	IC50 (HT29 cells [6]) [µM]	%Inh. @ 100 μM (n = 2) COX-2 (human recombinant COX-2) [%]	COX inhibition, in words (human recombinant COX-2)	IC50 (HCT116 cells [3]; Homo sapiens, HCT-116) [µM]	IC50 (HCT116 cells [4]; Homo sapiens, HCT-116) [µM]	IC50 (HT29 cells [5]; Homo sapiens, HT-29) [µM]	IC50 (HT29 cells [6]; Homo sapiens, HT-29) [µM]	Compound	IC50 (MC38 cells [1]) [µM]	IC50 (MC38 cells [2]) [µM]	effect on cell viability (MC38, HCT116, and HT29)	IC50 (MC38 cells [1]; Mus musculus, MC-38) [µM]	IC50 (MC38 cells [2]; Mus musculus, MC-38) [µM]	also measured
> 100	> 100	> 100	> 100							1-[2-(1,12-dicarba-closo-dodecaboranyl)]-1,3-dihydro-2H-indolin-2-one [p1]	> 100	> 100	no effect on cell viability			stability of the lactam towards hydrolysis [7]: extraordinarily stable towards hydrolysis
> 100	> 100	> 100	> 100	14						1-[9-(1,2-dicarba-closo-dodecaboranyl)]-1,3-dihydro-2H-indolin-2-one [o1]	> 100	> 100	no effect on cell viability			
> 100	> 100	> 100	> 100	19						1-[9-(1,7-dicarba-closo-dodecaboranyl)]-1,3-dihydro-2H-indolin-2-one [m1]	> 100	> 100	no effect on cell viability			
					no inhibition at all	46.7 ± 2.4	73.5 ± 3.9	77.7 ± 5.5	74.4 ± 4.8	O=C1Cc2ccccc2N1c1c(Cl)cccc1Cl [CCF, 1-(2,6-dichlorophenyl)-1,3-dihydro-2H-indolin-2-one, reference compound]				32.6 ± 2.7	75.1 ± 3.8	inhibition at 100 µM (human recombinant COX-2; read-out: %Inh. @ 100 μM (n = 2) COX-2): 5%; IC50 (MC38, HCT116, and HT29; CV): ~74 µM; IC50 (Hep-G2): 24.5 ± 1.11 µM; effect in initial in vitro tests on cancer cells [8]: no effect; gastrotoxicity [9]: without causing gastrotoxicity; in vivo conversion to open-chain diclofenac [10]: hydrolysis of the lactam to form the open-chain diclofenac; stability towards hydrolysis [11]: High stability towards hydrolysis
						> 100	> 100	> 100	> 100	O=C(O)Cc1ccccc1Nc1c(Cl)cccc1Cl [DCF, diclofenac]			no effect on cell viability	> 100	> 100	
> 100	> 100	> 100	> 100	56	moderately active COX-inhibitors					Sodium 1-[2-(7,8-dicarba-nido-undecaborate)]-1,3-dihydro-2H-indolin-2-one [compound 2]	> 100	> 100	no effect on cell viability			IC50 (human recombinant COX-2; absolute IC50, 0.1 to 100 μM in duplicate, 95% CI in brackets): 58.5 µM
